{
  "source": "the SangsterLogP compilation",
  "experiment": "method code SF-HPLC, from DOI: 10.1016/b978-0-08-029222-9.50040-8",
  "data": [
    {"smiles": "CCC(=O)N(C)SN(C)C(=O)ON=C(C)SC", "values": [
      {"measurement": "logP", "value": 1.6}
    ]},
    {"smiles": "CN(SN(C)C(=O)c1ccc(Cl)cc1Cl)C(=O)Oc1cccc2c1OC(C)(C)C2", "values": [
      {"measurement": "logP", "value": 4.9}
    ]},
    {"smiles": "CCCCN(SN(C)C(=O)ON=C(C)SC)C(C)=O", "values": [
      {"measurement": "logP", "value": 2.4}
    ]},
    {"smiles": "CCCC(=O)N(C)SN(C)C(=O)Oc1cccc2c1OC(C)(C)C2", "values": [
      {"measurement": "logP", "value": 3.8}
    ]},
    {"smiles": "CSC(C)=NOC(=O)N(C)SN(C)C(=O)c1ccc(Cl)cc1", "values": [
      {"measurement": "logP", "value": 2.6}
    ]},
    {"smiles": "CSC(C)=NOC(=O)N(C)SN(C)C(=O)c1cccc(Cl)c1", "values": [
      {"measurement": "logP", "value": 2.7}
    ]},
    {"smiles": "CN(SN(C)C(=O)c1ccccc1)C(=O)Oc1cccc2c1OC(C)(C)C2", "values": [
      {"measurement": "logP", "value": 3.5}
    ]},
    {"smiles": "CC(C)C(=O)N(C)SN(C)C(=O)Oc1cccc2c1OC(C)(C)C2", "values": [
      {"measurement": "logP", "value": 3.6}
    ]},
    {"smiles": "CCOC(=O)N(C)SN(C)C(=O)Oc1cccc2c1OC(C)(C)C2", "values": [
      {"measurement": "logP", "value": 3.5}
    ]},
    {"smiles": "CSC(C)=NOC(=O)N(C)SN(C)C(=O)c1cccc(C(F)(F)F)c1", "values": [
      {"measurement": "logP", "value": 2.5}
    ]},
    {"smiles": "CN(SN(C)C(=O)c1ccccc1Cl)C(=O)Oc1cccc2c1OC(C)(C)C2", "values": [
      {"measurement": "logP", "value": 4.1}
    ]},
    {"smiles": "CCCCN(SN(C)C(=O)Oc1cccc2c1OC(C)(C)C2)C(=O)OC", "values": [
      {"measurement": "logP", "value": 4.6}
    ]},
    {"smiles": "CSC(C)=NOC(=O)N(C)SN(C)C(=O)C1CC1", "values": [
      {"measurement": "logP", "value": 1.7}
    ]},
    {"smiles": "CC(=O)N(C)SN(C)C(=O)Oc1cccc2c1OC(C)(C)C2", "values": [
      {"measurement": "logP", "value": 2.7}
    ]},
    {"smiles": "CCCCN(SN(C)C(=O)ON=C(C)SC)C(=O)c1ccccc1", "values": [
      {"measurement": "logP", "value": 3.4}
    ]},
    {"smiles": "CCC(=O)N(C)SN(C)C(=O)Oc1cccc2c1OC(C)(C)C2", "values": [
      {"measurement": "logP", "value": 3.2}
    ]},
    {"smiles": "CSC(C)=NOC(=O)N(C)SN(C)C(=O)OC1CCCCC1", "values": [
      {"measurement": "logP", "value": 3.6}
    ]},
    {"smiles": "CCCCCCC(=O)N(SN(C)C(=O)ON=C(C)SC)c1ccccc1", "values": [
      {"measurement": "logP", "value": 4.2}
    ]},
    {"smiles": "CSC(C)=NOC(=O)N(C)SN(C)C(=O)N(C(C)C)C(C)C", "values": [
      {"measurement": "logP", "value": 2.6}
    ]},
    {"smiles": "CSC(C)=NOC(=O)N(C)SN(C)C(=O)c1ccccc1", "values": [
      {"measurement": "logP", "value": 2.2}
    ]},
    {"smiles": "CSC(C)=NOC(=O)N(C)SN(C)C(=O)c1c(Cl)cccc1Cl", "values": [
      {"measurement": "logP", "value": 2.6}
    ]},
    {"smiles": "CCN(CC)C(=O)N(C)SN(C)C(=O)ON=C(C)SC", "values": [
      {"measurement": "logP", "value": 3.2}
    ]},
    {"smiles": "CCCCOC(=O)N(CCCC)SN(C)C(=O)ON=C(C)SC", "values": [
      {"measurement": "logP", "value": 4.2}
    ]},
    {"smiles": "CSC(C)=NOC(=O)N(C)SN(C(=O)c1ccc(C)cc1)C(C)C", "values": [
      {"measurement": "logP", "value": 3.4}
    ]},
    {"smiles": "CS/C(C)=N\\OC(=O)N(C)SN(C)C(=O)c1ccc(C)cc1", "values": [
      {"measurement": "logP", "value": 2.5}
    ]},
    {"smiles": "CNC(=O)ON=C(C)SC", "values": [
      {"measurement": "logP", "value": 0.6}
    ]},
    {"smiles": "CSC(C)=NOC(=O)N(C)SN(C)C(=O)c1ccc(Cl)cc1Cl", "values": [
      {"measurement": "logP", "value": 3.2}
    ]},
    {"smiles": "CN(SN(C)C(=O)OC(C)(C)C)C(=O)Oc1cccc2c1OC(C)(C)C2", "values": [
      {"measurement": "logP", "value": 4.3}
    ]},
    {"smiles": "CS/C(C)=N\\OC(=O)N(C)SN(C)C(C)=O", "values": [
      {"measurement": "logP", "value": 1.3}
    ]},
    {"smiles": "COC(=O)N(C)SN(C)C(=O)Oc1cccc2c1OC(C)(C)C2", "values": [
      {"measurement": "logP", "value": 3}
    ]},
    {"smiles": "CCCCCCN(SN(C)C(=O)ON=C(C)SC)C(=O)N(C)C", "values": [
      {"measurement": "logP", "value": 3.3}
    ]},
    {"smiles": "COC(=O)N(C)SN(C)C(=O)O/N=C(\\C)SC", "values": [
      {"measurement": "logP", "value": 1.4}
    ]},
    {"smiles": "CSC(C)=NOC(=O)N(C)SN(C)C(=O)ON=C(C)SC", "values": [
      {"measurement": "logP", "value": 1.7}
    ]},
    {"smiles": "CCCCCCCCCCOC(=O)N(C)SN(C)C(=O)ON=C(C)SC", "values": [
      {"measurement": "logP", "value": 6.2}
    ]},
    {"smiles": "CSC(C)=NOC(=O)N(C)SN(C)C(=O)C(C)C", "values": [
      {"measurement": "logP", "value": 2.2}
    ]},
    {"smiles": "CSC(C)=NOC(=O)N(C)SN(C)C(=O)c1ccccc1Cl", "values": [
      {"measurement": "logP", "value": 2.5}
    ]},
    {"smiles": "CCCCCCOC(=O)N(C)SN(C)C(=O)ON=C(C)SC", "values": [
      {"measurement": "logP", "value": 4.2}
    ]},
    {"smiles": "CCCC(=O)N(C)SN(C)C(=O)ON=C(C)SC", "values": [
      {"measurement": "logP", "value": 2.2}
    ]},
    {"smiles": "CN(SN(C)C(=O)c1ccc(Cl)cc1)C(=O)Oc1cccc2c1OC(C)(C)C2", "values": [
      {"measurement": "logP", "value": 4}
    ]},
    {"smiles": "CCCCN(SN(C)C(=O)O/N=C(\\C)SC)C(=O)OC", "values": [
      {"measurement": "logP", "value": 2.5}
    ]}
  ]
}
